The source of these data is article PMC4891385 (Clinical Drug Investigation, 2016).

The conditions of series [1]: no reference given; cited from earlier work.
The target in a further series is T1, OATP1B3 (Homo sapiens, UniProt Q9NPD5).
T1 sequence (Q9NPD5 1-702): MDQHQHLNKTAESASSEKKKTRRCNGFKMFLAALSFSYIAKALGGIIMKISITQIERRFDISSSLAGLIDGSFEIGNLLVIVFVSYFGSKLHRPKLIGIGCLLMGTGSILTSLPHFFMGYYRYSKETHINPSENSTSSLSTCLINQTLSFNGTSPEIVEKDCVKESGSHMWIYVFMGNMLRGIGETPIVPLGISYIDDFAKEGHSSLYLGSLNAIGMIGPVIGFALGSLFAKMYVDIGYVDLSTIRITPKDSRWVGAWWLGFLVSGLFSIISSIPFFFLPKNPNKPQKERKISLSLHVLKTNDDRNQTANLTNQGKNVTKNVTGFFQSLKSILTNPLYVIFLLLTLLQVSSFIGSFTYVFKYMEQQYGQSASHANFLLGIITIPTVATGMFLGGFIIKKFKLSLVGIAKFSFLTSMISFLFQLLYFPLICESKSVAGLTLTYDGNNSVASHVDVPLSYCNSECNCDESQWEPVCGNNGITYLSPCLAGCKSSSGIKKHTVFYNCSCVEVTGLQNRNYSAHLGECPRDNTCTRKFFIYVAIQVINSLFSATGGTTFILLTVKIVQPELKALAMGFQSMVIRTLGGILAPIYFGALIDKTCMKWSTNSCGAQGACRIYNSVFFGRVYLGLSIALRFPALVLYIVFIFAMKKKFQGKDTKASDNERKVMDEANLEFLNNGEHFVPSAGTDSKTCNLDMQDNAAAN
The experiment in a line: [14C]-lesinurad uptake, substrate test, hOATP1B3 MDCK-II cells. The class given is in vitro ADME.

Another series has as its target T2, OATP1B1 (Homo sapiens, UniProt Q9Y6L6).
T2 sequence (Q9Y6L6 1-691): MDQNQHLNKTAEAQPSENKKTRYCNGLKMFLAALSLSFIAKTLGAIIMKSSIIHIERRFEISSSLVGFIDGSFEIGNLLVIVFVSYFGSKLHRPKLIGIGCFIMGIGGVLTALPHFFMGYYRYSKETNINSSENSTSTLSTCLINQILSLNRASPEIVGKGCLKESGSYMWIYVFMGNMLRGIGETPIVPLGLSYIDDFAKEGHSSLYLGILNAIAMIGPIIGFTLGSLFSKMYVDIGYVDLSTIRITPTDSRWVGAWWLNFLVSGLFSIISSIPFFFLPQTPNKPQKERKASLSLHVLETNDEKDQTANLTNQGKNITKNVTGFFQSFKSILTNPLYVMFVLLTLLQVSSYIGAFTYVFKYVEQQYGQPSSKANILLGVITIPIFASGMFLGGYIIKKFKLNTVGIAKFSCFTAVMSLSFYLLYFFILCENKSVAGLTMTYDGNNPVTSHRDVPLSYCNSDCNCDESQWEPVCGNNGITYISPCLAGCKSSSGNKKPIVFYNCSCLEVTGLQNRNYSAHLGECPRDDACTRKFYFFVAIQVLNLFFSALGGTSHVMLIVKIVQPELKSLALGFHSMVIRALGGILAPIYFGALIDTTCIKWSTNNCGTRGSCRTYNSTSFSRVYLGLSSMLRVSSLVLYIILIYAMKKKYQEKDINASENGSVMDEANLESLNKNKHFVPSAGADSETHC
In words: [14C]-lesinurad uptake, substrate test, hOATP1B1 MDCK-II cells. The series is classed as in vitro ADME.

On to `O=C(O)CSc1nnc(Br)n1-c1ccc(C2CC2)c2ccccc12` [lesinurad], for which the “accumulation during multiple once-daily dosing” value in series [1] is on record as “does not accumulate”. Moreover, the Lesinurad as substrate entry on OATP1B3 is on record as “not a substrate”; at OATP1B1 it was “weak substrate”. Moreover, at OATP1B1 (lesinurad 10 µM), the “increase in lesinurad uptake in transfected versus non-transfected cells” value stood at 2.25 fold.
